Data published in patent US20260124191A1, “HISTONE DEACETYLASE INHIBITOR AND USES THEREOF” (NANJING HONGSHUN PHARMACEUTICAL TECHNOLOGY CO., LTD, priority 2023, published 2026).

Columns and labels:
[1] = test system: human colon cancer cell line HCT116; experiment: In vitro anti-tumor activity, MTT method; assay type: cell-based; conditions: HCT-116, 96-hour treatment, read-out: Antiproliferative Activity (IC50 ± SD, μM) HCT116
Method: (§1) The inhibitory effects of the compounds against human non-small cell lung cancer cell lines A549, NCI-H1650, human small cell lung cancer cell lines H446, human prostate cancer cells DU145, PC-3, LNCAP, human colon cancer cells lines HCT116, human breast cancer cells MDA-MB-231, and MCF7 tumor cell lines were determined using the MTT method.
(§2) The method was as follows. The cells in the exponential growth phase were collected to count living cells. The concentration of the cell suspension was adjusted using the corresponding medium of each group of cells. The cell suspension was added to the 96-well culture plate at 100 μL per cell, and the plate was placed in a 5% CO2 incubator at 37° C. and incubated for 24 h. Each test compound was dissolved in DMSO to prepare a stock solution with a corresponding concentration. Then, each stock solution was diluted 500-fold with the medium to prepare 4 replicate wells. 100 μL of the corresponding 500-fold solution was added to each well per cell line, with the final DMSO concentration of 0.1%. […] The half-maximal (relative to the DMSO control group) inhibition rate was calculated using the software GraphPad Prism 4.

[2] = test system: human non-small cell lung cancer cell line NCI-H1650; experiment: In vitro anti-tumor activity, MTT method; assay type: cell-based; conditions: 96-hour treatment, read-out: Antiproliferative Activity (IC50 ± SD, μM) H1650
Method: as §1, §2

[3] = test system: human breast cancer cells MCF7; experiment: In vitro anti-tumor activity, MTT method; assay type: cell-based; conditions: Homo sapiens, MCF7, 96 h, MCF-7, MTT, 96-hour treatment
Method: as §1, §2

[4] = test system: human prostate cancer cells DU145; experiment: In vitro anti-tumor activity, MTT method; assay type: cell-based; conditions: Homo sapiens, DU-145, 96 h, 96-hour treatment
Method: as §1, §2

[5] = test system: human prostate cancer cells LNCAP; experiment: In vitro anti-tumor activity, MTT method; assay type: cell-based; conditions: 96-hour treatment, read-out: Antiproliferative Activity (IC50 ± SD, μM) LNCAP
Method: as §1, §2

[6] = test system: human non-small cell lung cancer cell line A549; experiment: In vitro anti-tumor activity, MTT method; assay type: cell-based; conditions: Homo sapiens, A549, 96 h, 96-hour treatment
Method: as §1, §2

[7] = test system: human prostate cancer cells PC-3; experiment: In vitro anti-tumor activity, MTT method; assay type: cell-based; conditions: Homo sapiens, 96 h, PC-3, MTT, 96-hour treatment
Method: as §1, §2

[8] = test system: human small cell lung cancer cell line H446; experiment: In vitro anti-tumor activity, MTT method; assay type: cell-based; conditions: NCI-H446, 96-hour treatment, read-out: Antiproliferative Activity (IC50 ± SD, μM) H446
Method: as §1, §2

[9] = test system: human breast cancer cells MDA-MB-231; experiment: In vitro anti-tumor activity, MTT method; assay type: cell-based; conditions: MDA-MB-231, MTT, 96-hour treatment, read-out: Antiproliferative Activity (IC50 ± SD, μM) MDA-MB-231
Method: as §1, §2

[10] = test system: HT29; experiment: In vitro anti-tumor activity, MTT method; assay type: cell-based; conditions: Homo sapiens, HT-29, 96-hour treatment, read-out: Antiproliferative Activity (IC50 ± SD, μM) HT29
[11] = test system: HDAC; experiment: HDAC inhibitory activity assay (FRET); assay type: biochemical; conditions: for IC50: HDAC, FRET, read-out: Half-maximal inhibitory concentration (IC50 ± SD); for Inhibition rate: test concentration 100 nM, relative to DMSO control
Method: The HDAC inhibitory activity of the synthesized compounds was determined by fluorescence resonance energy transfer (FRET), and then compared with that of the positive control to screen out compounds with better activity. HDAC was obtained by purification or purchased directly.
The method was as follows.
An enzyme was added to reaction wells, a reaction buffer was added to control wells, a sample dissolved in DMSO was added to the reaction wells, and the wells were incubated using a contactless nanoflow sonic pipetting system (Ech-550; nanoflow). A fluorescent substrate was added to each reaction well and then rotated and shaken. The wells were incubated for 1-2 h at 30° C. under a sealed condition. A TMP26-containing chromogenic agent was added to terminate the reaction and produce fluorescence. The fluorescence intensity was detected using En Vision multi-label microplate detector (Perkin Elmer) (excitation light: 490 nm, emitted light: 520 nm). After the stabilization of color development, the endpoint value was read. The percentage (relative to the DMSO control group) inhibition rate was calculated using the software GraphPad Prism 4.

Compound	IC50 [1]	IC50 [2]	IC50 [3]	IC50 [4]	IC50 [5]	IC50 [6]	IC50 [7]	IC50 [8]	IC50 [9]	IC50 [10]	IC50 [11]	Inhibition rate [11]
O=C(CCCCCCN1C(=O)C/C(=C\c2ccccc2)C1=O)NO [Example I-4]	0.75 ± 0.08 µM	6.12 ± 0.88 µM	1430 ± 60 nM	500 ± 70 nM	1.63 ± 0.24 µM	1320 ± 170 nM	820 ± 70 nM	0.57 ± 0.03 µM	0.67 ± 0.1 µM	1.76 ± 0.25 µM	12.9 ± 0.1 nM	
O=C(CCCCCCN1C(=O)C/C(=C\c2cccc(Cl)c2)C1=O)NO [Example I-25, (E)-7-(3-(3-chlorobenzal)-2,5-diketopyrrolidinyl)-N-hydroxyheptamide]	0.81 ± 0.06 µM	7.3 ± 0.56 µM	1050 ± 240 nM	380 ± 40 nM	1.95 ± 0.21 µM	1120 ± 200 nM	1700 ± 80 nM	0.78 ± 0.04 µM	2.05 ± 0.2 µM	1.3 ± 0.1 µM		91.2% ± 0.7%
COc1cc(/C=C2\CC(=O)N(CCCCCCC(=O)NO)C2=O)cc(OC)c1OC [Example I-35, (E)-7-(3-(3,4,5-trimethoxybenzal)-2,5-diketopyrrolidinyl)-N-hydroxyheptamide]			1270 ± 130 nM	1030 ± 140 nM		3630 ± 650 nM	1710 ± 170 nM					82.5% ± 3.5%
COc1cc(/C=C2\CC(=O)N(CCCCCCC(=O)NO)C2=O)cc(OC)c1O [Example I-36, (E)-7-(3-(4-hydroxy-3,5-dimethoxybenzal)-2,5-diketopyrrolidinyl)-N-hydroxyheptamide]			1880 ± 140 nM	3880 ± 40 nM		> 10000 nM	1730 ± 200 nM					74.8% ± 2.8%
O=C(NO)c1ccc(CN2C(=O)C/C(=C\c3ccccc3)C2=O)cc1 [Example I-41, (E)-4-((3-benzal-2,5-diketopyrrolidinyl)methyl)-N-hydroxybenzamide]			6970 ± 830 nM	2540 ± 410 nM		3090 ± 410 nM	7820 ± 900 nM					77.1% ± 1.8%

These reach a lower IC50 [3]. Values come first.

IC50 [1]	IC50 [2]	IC50 [3]	IC50 [4]	IC50 [5]	IC50 [6]	IC50 [7]	IC50 [8]	IC50 [9]	IC50 [10]	IC50 [11]	Compound	Inhibition rate [11]
0.91 ± 0.11 µM	4.42 ± 0.72 µM	980 ± 20 nM	340 ± 30 nM	1.48 ± 0.2 µM	1800 ± 140 nM	1290 ± 140 nM	0.7 ± 0.1 µM	0.98 ± 0.11 µM	1.69 ± 0.1 µM		O=C(CCCCCCN1C(=O)C/C(=C\c2ccc3ccccc3c2)C1=O)NO [Example I-22, (E)-7-(3-(2-methylenenaphthyl)-2,5-diketopyrrolidinyl)-N-hydroxyheptamide]	89.4% ± 0.9%
0.86 ± 0.08 µM	6.6 ± 0.57 µM	580 ± 30 nM	480 ± 60 nM	1.51 ± 0.22 µM	1330 ± 230 nM	1440 ± 100 nM	0.77 ± 0.1 µM	0.99 ± 0.11 µM	1.22 ± 0.1 µM	19.3 ± 0.11 nM	O=C(CCCCCCN1C(=O)C/C(=C\c2ccccc2Cl)C1=O)NO [Example I-24, (E)-7-(3-(2-chlorobenzal)-2,5-diketopyrrolidinyl)-N-hydroxyheptamide]	
0.47 ± 0.01 µM	3.56 ± 0.1 µM	350 ± 20 nM	160 ± 40 nM	0.63 ± 0.12 µM	1390 ± 60 nM	820 ± 90 nM	0.65 ± 0.05 µM	0.31 ± 0.05 µM	1.05 ± 0.1 µM	12.6 ± 0.15 nM	COc1ccccc1/C=C1\CC(=O)N(CCCCCCC(=O)NO)C1=O [Example I-31, (E)-7-(3-(2-methoxybenzal)-2,5-diketopyrrolidinyl)-N-hydroxyheptamide]	
		800 ± 150 nM	1720 ± 120 nM		4340 ± 690 nM	1930 ± 230 nM					O=C(CCCCCCN1C(=O)C/C(=C\c2ccccc2O)C1=O)NO [Example I-37, (E)-7-(3-(2-hydroxybenzal)-2,5-diketopyrrolidinyl)-N-hydroxyheptamide]	90.6% ± 0.9%
		510 ± 70 nM	340 ± 40 nM		1780 ± 200 nM	890 ± 50 nM				16.7 ± 0.21 nM	CCOc1ccccc1/C=C1\CC(=O)N(CCCCCCC(=O)NO)C1=O [Example I-38, (E)-7-(3-(2-ethoxybenzal)-2,5-diketopyrrolidinyl)-N-hydroxyheptamide]	
		680 ± 90 nM	460 ± 40 nM		2210 ± 270 nM	1130 ± 70 nM					COc1ccc(Br)cc1/C=C1\CC(=O)N(CCCCCCC(=O)NO)C1=O [Example I-39, (E)-7-(3-(5-bromo-2-methoxybenzal)-2,5-diketopyrrolidinyl)-N-hydroxyheptamide]	88.1% ± 1.1%
		320 ± 20 nM	250 ± 40 nM		1490 ± 90 nM	670 ± 100 nM				5.5 ± 0.03 nM	COc1cc(Br)ccc1/C=C1\CC(=O)N(CCCCCCC(=O)NO)C1=O [Example I-40, (E)-7-(3-(4-bromo-2-methoxybenzal)-2,5-diketopyrrolidinyl)-N-hydroxyheptamide]	
